Source: US20150204836A1, “SOLUBLE METAL SENSOR COMPOUNDS AND METHODS FOR MAKING AND USING THE SAME” (UNIVERSITY OF UTAH RESEARHC FOUNDATION, priority 2012, published 2015)
In brackets after ≈: the same amount, converted by molar mass.

Legend:
[1] = Linear fluorescence detection response and detection limit for Hg^2+; conditions: 0.3 μM of Compound 1; corresponding to a 1% decrease of fluorescence intensity
Description: Linear detection response for Hg^2+ was determined/established for several concentrations of Compound 1. A linear detection response of Hg^2+ in the range 0 to 18 ppb for 0.3 μM of Compound 1 and a detection limit of 0.4 ppb for Hg^2+, corresponding to a 1% decrease of fluorescence intensity was determined (FIG. 2A).

[2] = Storage stability of metal sensor solution in HDPE/LDPE squeeze bottles; type: physicochemical; conditions: 7.4 μM in 50% glycerol-water, on shelf in room and outside in shade
Description: High density polyethylene (HDPE) and low density polyethylene (LDPE) squeeze bottles were used to store metal sensor solutions (7.4 μM Compound 1). One pair of HDPE and LDPE bottles was stored on shelf in room, and the other pair of bottles was stored outside in shade. Compound 1 is very stable in 50% glycerol-water without obvious change of absorbance and fluorescence spectra at least for 6 weeks.

[3] = pH tuning study, selectivity for Hg^2+ over 11 other metal ions (fluorescence quenching); conditions: 1.0 μM Compound 1, 11 metal ions each 5 μM, 2.0 μM Hg^2+, pH 4, 5, 6, 7
Description: The selectivity of the sensor Compound 1 for Hg^2+ over environmentally relevant alkali, alkaline earth and transition metal ions (K^+, […], Mg^2+, Ca^2+, Ba^2+, Zn^2+, Fe^2+, Ni^2+, Cd^2+, Pb^2+, Cu^2+) was investigated in different pH solution pH=4, 5, NaOAc 0.02M buffer, pH=6, PBS 0.02M buffer, pH 7 water (panel A pH 4.0, panel B pH 5.0, panel C pH 6.0, panel D pH 7.0). Fluorescence spectra of a 1.0 μM Compound 1 solution in the absence (A line) and presence (B line) of a mixture of all 11 metal ions (each 5 μM).

[4] = Temperature effect on fluorescence quenching by Hg^2+; conditions: one point assay, 1.0 μM Compound 1, 2.0 μM Hg^2+, 596 nm, varying temperatures
Description: New sensors could be used to test water sources in quite different locations, at different seasons, and from diverse water sources.

[5] = Solubility in various solvents; type: physicochemical
Description: Compound 1 is a dark red color solid with solubility in water about 30 μM, much higher than detection concentration (0.3˜5 μM) that is commonly used in fluorometer or portable detector. Various solvents have been tested in the following table. For transferring Compound 1 as aliquots, ethanol-dichloromethane (DCM) (5:1) is a good solvent giving good solubility and easy evaporation of solvent.

[6] = Spectral properties (absorbance, extinction coefficient, emission) in various solvents; type: physicochemical

Cc1cn([C@@H]2C[C@@H](O)[C@H](CNC(=O)CCN3C(=O)c4cc(Oc5cccnc5)c5c6c(Oc7cccnc7)cc7c8c(cc(Oc9cccnc9)c(c9c(Oc%10cccnc%10)cc(c4c59)C3=O)c86)C(=O)N(CCC(=O)NC[C@H]3O[C@@H](n4cc(C)c(=O)[nH]c4=O)C[C@@H]3O)C7=O)O2)c(=O)[nH]c1=O [Compound 1, N-(((2R,3S,5R)-3-hydroxy-5-(5-methyl-2,4-dioxo-3,4-dihydropyrimidin-1(2H)-yl)tetrahydrofuran-2-yl)methyl)-3-(9-(3-((((2S,3R,5S)-3-hydroxy-5-(5-methyl-2,4-dioxo-3,4-dihydropyrimidin-1(2H)-yl)tetrahydrofuran-2-yl)methyl)amino)-3-oxopropyl)-1,3,8,10-tetraoxo-5,6,12,13-tetrakis(pyridin-3-yloxy)-9,10-dihydroanthra[2,1,9-def:6,5,10-d′e′f′]diisoquinolin-2(1H,3H,8H)-yl)propanamide]
detection limit for Hg^2+ [1]: 0.4 ppb | stable without obvious change of absorbance and fluorescence spectra [2]: ≥ 6 weeks | fluorescence response on addition of Hg^2+ to mixture of 11 metal ions [3]: fluorescence quenching | temperature effect on quenching efficiency [4]: small, but potentially significant, effect | solubility ([5]; 15% glycerol in water, aqueous with cosolvent or surfactant or cyclodextrin, 15% Glycerol-H2O): ~50 µM (≈ 67.7 µg/mL) | solubility ([5]; 30% glycerol in water, aqueous with cosolvent or surfactant or cyclodextrin, 30% Glycerol-H2O): > 86 µM | solubility ([5]; 30% propylene glycol in water, aqueous with cosolvent or surfactant or cyclodextrin, 30% Propylene glycol-H2O): > 86 µM | solubility ([5]; 50% glycerol in water, aqueous with cosolvent or surfactant or cyclodextrin, 50% Glycerol-H2O): > 86 µM | solubility ([5]; 50% propylene glycol in water, aqueous with cosolvent or surfactant or cyclodextrin, 50% Propylene glycol-H2O): > 86 µM | solubility ([5]; DMF, organic solvent or mixture): > 200 µM | solubility ([5]; DMF-water (7:3), organic solvent or mixture, DMF-H2O (7:3)): > 200 µM | solubility ([5]; ethanol, organic solvent or mixture): ~100 µM (≈ 135 µg/mL) | solubility ([5]; ethanol-dichloromethane (5:1), organic solvent or mixture, Ethanol-DCM (5:1)): > 342 µM | solubility ([5]; isopropanol, organic solvent or mixture): > 86 µM | solubility ([5]; water): ~30 µM (≈ 40.6 µg/mL) | ε (extinction coefficient) ([6]; 15% Glycerol-H2O): 15000 M⁻¹ cm⁻¹ | λmax,abs ([6]; 15% Glycerol-H2O): 564 nm | λmax,flu ([6]; 15% Glycerol-H2O): 598 nm | ε (extinction coefficient) ([6]; 30% Glycerol-H2O): 16970 M⁻¹ cm⁻¹ | λmax,abs ([6]; 30% Glycerol-H2O): 566 nm | λmax,flu ([6]; 30% Glycerol-H2O): 598 nm | ε (extinction coefficient) ([6]; 50% Glycerol-H2O): 16330 M⁻¹ cm⁻¹ | λmax,abs ([6]; 50% Glycerol-H2O): 565 nm | λmax,flu ([6]; 50% Glycerol-H2O): 598 nm | ε (extinction coefficient) ([6]; DMF-H2O (7:3)): 18900 M⁻¹ cm⁻¹ | λmax,abs ([6]; DMF-H2O (7:3)): 561 nm | λmax,flu ([6]; DMF-H2O (7:3)): 595 nm | ε (extinction coefficient) ([6]; Ethanol): 12830 M⁻¹ cm⁻¹ | λmax,abs ([6]; Ethanol): 557 nm | λmax,flu ([6]; Ethanol): 594 nm | ε (extinction coefficient) ([6]; Ethanol-DCM (5:1)): 16000 M⁻¹ cm⁻¹ | λmax,abs ([6]; Ethanol-DCM (5:1)): 558 nm | λmax,flu ([6]; Ethanol-DCM (5:1)): 595 nm | ε (extinction coefficient) ([6]; H2O): 12375 M⁻¹ cm⁻¹ | λmax,abs ([6]; H2O): 563 nm | λmax,flu ([6]; H2O): 595 nm | ε (extinction coefficient) ([6]; Isopropanol): 15200 M⁻¹ cm⁻¹ | λmax,abs ([6]; Isopropanol): 561 nm | λmax,flu ([6]; Isopropanol): 594 nm
